Measured values taken from patent US10206937B2, “Boronic acid derivatives and therapeutic uses thereof” (Qpex Biopharma, Inc., priority 2014, dated 2019).

Assays:
[1] = target: purified class A, C and D enzymes (Escherichia coli, UniProt Q9L5C7); format: biochemical; conditions: purified CTX-M-14; nitrocefin reporter substrate
[2] = target: T1, purified class A, C and D enzymes (UniProt Q6XEC0); format: biochemical; conditions: read-out: Ki (OXA-48, NCF); purified OXA-48; nitrocefin reporter substrate
T1 construct: rows headed: Ki (OXA-48, NCF); other: purified OXA-48; nitrocefin reporter substrate

[3] = target: purified class A, C and D enzymes (Enterobacter cloacae, UniProt P05364); format: biochemical; conditions: purified P99/AmpC of ECL; nitrocefin reporter substrate
[4] = target: T2, purified class A, C and D enzymes (UniProt Q9F663); format: biochemical; conditions: read-out: Ki (KPC-2, NCF); purified KPC-2; nitrocefin reporter substrate
T2 construct: rows headed: Ki (KPC-2, NCF); other: purified KPC-2; nitrocefin reporter substrate

[5] = target: T3, purified class A, C and D enzymes (UniProt P0AD64, L31Q/G234S/E235K, species not given); format: biochemical; conditions: read-out: Ki (SHV-12, NCF); purified SHV-12; nitrocefin reporter substrate
T3 construct: Ki (SHV-12, NCF); other: purified SHV-12; nitrocefin reporter substrate
T3 sequence (P0AD64 1-286 L31Q/G234S/E235K): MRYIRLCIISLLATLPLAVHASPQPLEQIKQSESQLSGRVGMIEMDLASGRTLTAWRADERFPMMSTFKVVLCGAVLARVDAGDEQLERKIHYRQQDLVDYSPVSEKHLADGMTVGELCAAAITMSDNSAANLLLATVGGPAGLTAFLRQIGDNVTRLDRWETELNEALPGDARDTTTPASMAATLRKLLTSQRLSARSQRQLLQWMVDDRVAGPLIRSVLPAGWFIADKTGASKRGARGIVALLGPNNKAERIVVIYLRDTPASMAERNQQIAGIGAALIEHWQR

NDM-1 [6] = target: T4, NDM-1 (Klebsiella pneumoniae, UniProt C7C422); assay: biochemical; conditions: cleavage of imipenem (100 uM) by NDM-1; read-out: Ki, Imipenem
NDM-1 [7] = target: T4, NDM-1; assay: Inhibition of purified class B carbapenemase NDM-1 (Ki, imipenem substrate); format: biochemical; conditions: NDM-1, substrate imipenem; read-out: Ki NDM-1, Imipenem
VIM-1 = target: T5, VIM-1 (Pseudomonas aeruginosa, UniProt A0A0F7KYQ8); assay: biochemical; conditions: cleavage of nitrocefin (200 uM) by VIM-1 supernatant
T5 construct: made in house; host or cells: ECM6711 strain carrying pUCP24-VIM-1 plasmid; culture supernatant used unpurified

Chain of purified class A, C and D enzymes (Enterobacter cloacae, UniProt P05364) (P05364 21-381): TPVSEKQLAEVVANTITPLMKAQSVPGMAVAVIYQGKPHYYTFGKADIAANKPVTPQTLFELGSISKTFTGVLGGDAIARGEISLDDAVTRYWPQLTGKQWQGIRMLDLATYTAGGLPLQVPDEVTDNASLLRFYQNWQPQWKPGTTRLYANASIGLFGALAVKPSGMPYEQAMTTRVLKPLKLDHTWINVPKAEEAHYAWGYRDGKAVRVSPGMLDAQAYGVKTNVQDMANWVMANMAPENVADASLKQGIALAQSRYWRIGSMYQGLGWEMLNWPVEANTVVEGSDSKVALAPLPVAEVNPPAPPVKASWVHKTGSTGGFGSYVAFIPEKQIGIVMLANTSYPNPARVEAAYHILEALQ
T4 sequence (C7C422 29-270, looked up, species assumed): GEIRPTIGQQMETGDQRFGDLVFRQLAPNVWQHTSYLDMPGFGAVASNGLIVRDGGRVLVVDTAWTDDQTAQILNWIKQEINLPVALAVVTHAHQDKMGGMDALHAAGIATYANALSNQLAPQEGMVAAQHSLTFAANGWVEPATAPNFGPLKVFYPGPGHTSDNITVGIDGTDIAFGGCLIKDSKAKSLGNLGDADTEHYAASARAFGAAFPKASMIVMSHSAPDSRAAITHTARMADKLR
Chain of purified class A, C and D enzymes (Escherichia coli, UniProt Q9L5C7) (Q9L5C7 entry or part of it): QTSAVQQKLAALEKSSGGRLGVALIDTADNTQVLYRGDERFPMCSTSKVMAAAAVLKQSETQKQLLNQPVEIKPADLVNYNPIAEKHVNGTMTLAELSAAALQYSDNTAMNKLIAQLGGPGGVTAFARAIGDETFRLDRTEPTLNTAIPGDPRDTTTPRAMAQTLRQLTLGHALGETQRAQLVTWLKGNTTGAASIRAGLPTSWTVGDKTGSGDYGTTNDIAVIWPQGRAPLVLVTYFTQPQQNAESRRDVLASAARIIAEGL

Nc1nnc(S[C@H]2Cc3ccc(O)c(C(=O)O)c3OB2O)s1 [Compound 44, (R)-3-(5-amino-1,3,4-thiadiazol-2-ylthio)-2,7-dihydroxy-3,4-dihydro-2H-benzo[e][1,2]oxaborinine-8-carboxylic acid]
Ki (CTX-M-14, NCF) [1]: X (Less than 0.1 μM)
Ki [2]: < 0.1 µM
Ki (P99/AmpC of ECL, NCF) [3]: X (Less than 0.1 μM)
Ki [4]: < 0.1 µM
Ki [5]: < 0.1 µM
Ki (NDM-1 [6]): < 0.01 µM
Ki (NDM-1 [7]): < 0.01 µM
IC50 (VIM-1): < 1 µM

COc1ccc2c(c1C(=O)O)OB(O)[C@@H](Sc1nncn1C)C2 [Compound 28, (R)-2-hydroxy-7-methoxy-3-(4-methyl-4H-1,2,4-triazol-3-ylthio)-3,4-dihydro-2H-benzo[e][1,2]oxaborinine-8-carboxylic acid]
Ki (CTX-M-14, NCF) [1]: X (Less than 0.1 μM)
Ki [2]: < 0.1 µM
Ki (P99/AmpC of ECL, NCF) [3]: Y (0.1 μM to 1 μM)
Ki [4]: 0.1 to 1 µM
Ki [5]: < 0.1 µM
Ki (NDM-1 [6]): < 0.01 µM
Ki (NDM-1 [7]): < 0.01 µM
IC50 (VIM-1): < 1 µM

COc1ccc2c(c1C(=O)O)OB(O)[C@@H](Sc1nc(N)n[nH]1)C2 [Compound 82, (3R)-3-[(3-amino-1H-1,2,4-triazol-5-yl)sulfanyl]-2-hydroxy-7-methoxy-3,4-dihydro-1,2-benzoxaborinine-8-carboxylic acid]
Ki (CTX-M-14, NCF) [1]: X (Less than 0.1 μM)
Ki [2]: < 0.1 µM
Ki (P99/AmpC of ECL, NCF) [3]: Y (0.1 μM to 1 μM)
Ki [4]: 0.1 to 1 µM
Ki [5]: < 0.1 µM
Ki (NDM-1 [6]): < 0.01 µM
Ki (NDM-1 [7]): < 0.01 µM
IC50 (VIM-1): < 1 µM

COc1ccc2c(c1C(=O)O)OB(O)[C@@H](SCCc1nnc(N)s1)C2 [Compound 43, (R)-3-(2-(5-amino-1,3,4-thiadiazol-2-yl)ethylthio)-2-hydroxy-7-methoxy-3,4-dihydro-2H-benzo[e][1,2]oxaborinine-8-carboxylic acid]
Ki (CTX-M-14, NCF) [1]: X (Less than 0.1 μM)
Ki [2]: < 0.1 µM
Ki (P99/AmpC of ECL, NCF) [3]: X (Less than 0.1 μM)
Ki [4]: < 0.1 µM
Ki [5]: < 0.1 µM
Ki (NDM-1 [6]): < 0.01 µM
Ki (NDM-1 [7]): < 0.01 µM
IC50 (VIM-1): < 1 µM

Nc1nnc(S[C@H]2Cc3ccc(-n4ccnn4)c(C(=O)O)c3OB2O)s1 [Compound 119, (3R)-3-[(5-amino-1,3,4-thiadiazol-2-yl)sulfanyl]-2-hydroxy-7-(triazol-1-yl)-3,4-dihydro-1,2-benzoxaborinine-8-carboxylic acid]
Ki (CTX-M-14, NCF) [1]: X (Less than 0.1 μM)
Ki [2]: < 0.1 µM
Ki (P99/AmpC of ECL, NCF) [3]: Y (0.1 μM to 1 μM)
Ki [4]: > 1 µM
Ki [5]: 0.1 to 1 µM
Ki (NDM-1 [6]): < 0.01 µM
Ki (NDM-1 [7]): < 0.01 µM
IC50 (VIM-1): < 1 µM

COc1ccc2c(c1C(=O)O)OB(O)[C@@H](Sc1nnc(SCCCN)s1)C2 [Compound 113, (3R)-3-[[5-(3-aminopropylsulfanyl)-1,3,4-thiadiazol-2-yl]sulfanyl]-2-hydroxy-7-methoxy-3,4-dihydro-1,2-benzoxaborinine-8-carboxylic acid]
Ki (CTX-M-14, NCF) [1]: X (Less than 0.1 μM)
Ki [2]: < 0.1 µM
Ki (P99/AmpC of ECL, NCF) [3]: X (Less than 0.1 μM)
Ki [4]: < 0.1 µM
Ki [5]: < 0.1 µM
Ki (NDM-1 [6]): < 0.01 µM
Ki (NDM-1 [7]): < 0.01 µM
IC50 (VIM-1): < 1 µM

Nc1nnc(CCS[C@H]2Cc3ccc(F)c(C(=O)O)c3OB2O)s1 [Compound 50, (3R)-3-[2-(5-amino-1,3,4-thiadiazol-2-yl)ethylsulfanyl]-7-fluoro-2-hydroxy-3,4-dihydro-1,2-benzoxaborinine-8-carboxylic acid]
Ki (CTX-M-14, NCF) [1]: X (Less than 0.1 μM)
Ki [2]: < 0.1 µM
Ki (P99/AmpC of ECL, NCF) [3]: X (Less than 0.1 μM)
Ki [4]: < 0.1 µM
Ki [5]: < 0.1 µM
Ki (NDM-1 [6]): > 0.1 µM
Ki (NDM-1 [7]): > 0.1 µM
IC50 (VIM-1): < 1 µM

COc1ccc2c(c1C(=O)O)OB(O)[C@@H](SCCN1CCNCC1)C2 [Compound 72, (3R)-2-hydroxy-7-methoxy-3-(2-piperazin-1-ylethylsulfanyl)-3,4-dihydro-1,2-benzoxaborinine-8-carboxylic acid]
Ki (CTX-M-14, NCF) [1]: X (Less than 0.1 μM)
Ki [2]: < 0.1 µM
Ki (P99/AmpC of ECL, NCF) [3]: Y (0.1 μM to 1 μM)
Ki [4]: < 0.1 µM
Ki [5]: < 0.1 µM
Ki (NDM-1 [6]): > 0.1 µM
Ki (NDM-1 [7]): > 0.1 µM
IC50 (VIM-1): < 1 µM

O=C(O)c1cccc2c1OB(O)[C@@H](Sc1nnc(NC3CNC3)s1)C2 [Compound 99, (3R)-3-[[5-(azetidin-3-ylamino)-1,3,4-thiadiazol-2-yl]sulfanyl]-2-hydroxy-3,4-dihydro-1,2-benzoxaborinine-8-carboxylic acid]
Ki (CTX-M-14, NCF) [1]: X (Less than 0.1 μM)
Ki [2]: < 0.1 µM
Ki (P99/AmpC of ECL, NCF) [3]: X (Less than 0.1 μM)
Ki [4]: 0.1 to 1 µM
Ki [5]: < 0.1 µM
Ki (NDM-1 [6]): < 0.01 µM
Ki (NDM-1 [7]): < 0.01 µM
IC50 (VIM-1): < 1 µM

COc1ccc2c(c1C(=O)O)OB(O)[C@@H](Sc1nnc(NC3CNC3)s1)C2 [Compound 96, (3R)-3-[[5-(azetidin-3-ylamino)-1,3,4-thiadiazol-2-yl]sulfanyl]-2-hydroxy-7-methoxy-3,4-dihydro-1,2-benzoxaborinine-8-carboxylic acid]
Ki (CTX-M-14, NCF) [1]: X (Less than 0.1 μM)
Ki [2]: < 0.1 µM
Ki (P99/AmpC of ECL, NCF) [3]: Y (0.1 μM to 1 μM)
Ki [4]: 0.1 to 1 µM
Ki [5]: < 0.1 µM
Ki (NDM-1 [6]): < 0.01 µM
Ki (NDM-1 [7]): < 0.01 µM
IC50 (VIM-1): < 1 µM

COc1ccc2c(c1C(=O)O)OB(O)[C@@H](Sc1nnc(SC3CCNCC3)s1)C2 [Compound 112, (3R)-2-hydroxy-7-methoxy-3-[[5-(4-piperidylsulfanyl)-1,3,4-thiadiazol-2-yl]sulfanyl]-3,4-dihydro-1,2-benzoxaborinine-8-carboxylic acid]
Ki (CTX-M-14, NCF) [1]: X (Less than 0.1 μM)
Ki [2]: < 0.1 µM
Ki (P99/AmpC of ECL, NCF) [3]: X (Less than 0.1 μM)
Ki [4]: < 0.1 µM
Ki [5]: < 0.1 µM
Ki (NDM-1 [6]): 0.01 to 0.1 µM
Ki (NDM-1 [7]): 0.01 to 0.1 µM
IC50 (VIM-1): < 1 µM

COc1ccc2c(c1C(=O)O)OB(O)[C@@H](Sc1nncn1CCCCN)C2 [Compound 73, (3R)-3-[[4-(4-aminobutyl)-1,2,4-triazol-3-yl]sulfanyl]-2-hydroxy-7-methoxy-3,4-dihydro-1,2-benzoxaborinine-8-carboxylic acid]
Ki (CTX-M-14, NCF) [1]: X (Less than 0.1 μM)
Ki [2]: < 0.1 µM
Ki (P99/AmpC of ECL, NCF) [3]: Z (Greater than 1 μM)
Ki [4]: 0.1 to 1 µM
Ki [5]: < 0.1 µM
Ki (NDM-1 [6]): 0.01 to 0.1 µM
Ki (NDM-1 [7]): 0.01 to 0.1 µM
IC50 (VIM-1): < 1 µM

Cc1ccc2c(c1C(=O)O)OB(O)[C@@H](Sc1nnc(N)s1)C2 [Compound 31, (R)-3-(5-amino-1,3,4-thiadiazol-2-ylthio)-2-hydroxy-7-methyl-3,4-dihydro-2H-benzo[e][1,2]oxaborinine-8-carboxylic acid]
Ki (CTX-M-14, NCF) [1]: X (Less than 0.1 μM)
Ki [2]: < 0.1 µM
Ki (P99/AmpC of ECL, NCF) [3]: Y (0.1 μM to 1 μM)
Ki [4]: 0.1 to 1 µM
Ki [5]: < 0.1 µM
Ki (NDM-1 [6]): > 0.1 µM
Ki (NDM-1 [7]): > 0.1 µM
IC50 (VIM-1): ≥ 1 µM

COc1ccc2c(c1C(=O)O)OB(O)[C@@H](Sc1nc(N)ns1)C2 [Compound 74, (3R)-3-[(3-amino-1,2,4-thiadiazol-5-yl)sulfanyl]-2-hydroxy-7-methoxy-3,4-dihydro-1,2-benzoxaborinine-8-carboxylic acid]
Ki (CTX-M-14, NCF) [1]: X (Less than 0.1 μM)
Ki [2]: < 0.1 µM
Ki (P99/AmpC of ECL, NCF) [3]: Y (0.1 μM to 1 μM)
Ki [4]: < 0.1 µM
Ki [5]: < 0.1 µM
Ki (NDM-1 [6]): > 0.1 µM
Ki (NDM-1 [7]): > 0.1 µM
IC50 (VIM-1): < 1 µM

NC(=O)COc1ccc2c(c1C(=O)O)OB(O)[C@@H](Sc1nnc(N)s1)C2 [Compound 80, (3R)-7-(2-amino-2-oxo-ethoxy)-3-[(5-amino-1,3,4-thiadiazol-2-yl)sulfanyl]-2-hydroxy-3,4-dihydro-1,2-benzoxaborinine-8-carboxylic acid]
Ki (CTX-M-14, NCF) [1]: X (Less than 0.1 μM)
Ki [2]: < 0.1 µM
Ki (P99/AmpC of ECL, NCF) [3]: Y (0.1 μM to 1 μM)
Ki [4]: 0.1 to 1 µM
Ki [5]: < 0.1 µM
Ki (NDM-1 [6]): > 0.1 µM
Ki (NDM-1 [7]): > 0.1 µM
IC50 (VIM-1): < 1 µM

Nc1nnc(S[C@H]2Cc3ccc(OC(F)F)c(C(=O)O)c3OB2O)s1 [Compound 84, (3R)-3-[(5-amino-1,3,4-thiadiazol-2-yl)sulfanyl]-7-(difluoromethoxy)-2-hydroxy-3,4-dihydro-1,2-benzoxaborinine-8-carboxylic acid]
Ki (CTX-M-14, NCF) [1]: X (Less than 0.1 μM)
Ki [2]: < 0.1 µM
Ki (P99/AmpC of ECL, NCF) [3]: Y (0.1 μM to 1 μM)
Ki [4]: 0.1 to 1 µM
Ki [5]: < 0.1 µM
Ki (NDM-1 [6]): 0.01 to 0.1 µM
Ki (NDM-1 [7]): 0.01 to 0.1 µM
IC50 (VIM-1): < 1 µM
